According to PMC5349447, “Applying a high-throughput fluorescence polarization assay for the discovery of chemical probes blocking La:RNA interactions in vitro and in cells” (PLoS ONE, 2017):

Experiments:
Type in all cases: cell-based, human
HEK293 cells = test: HEK293 cell proliferation and viability; details: data not shown
[1] = system: Bcl2 protein level in SCC 22B cells; test: Immunoblot for Bcl2, SCC 22B; details: cisplatin and C2.01 (50 μM) versus vehicle
[2] = system: Bcl2 protein level in SCC 22A cells; test: Immunoblot for Bcl2, SCC 22A; details: cisplatin and C2.01 (50 μM) versus vehicle
SCC 22A cells = test: Phase contrast microscopy and cisplatin IC50, SCC 22A; details: C2.01 (50 μM) combined with cisplatin 12 μM

Cc1ccc(C(=O)c2ccccc2C(=O)O)c(O)c1 [C2.01, 2-(2-hydroxy-4-methylbenzoyl)benzoic acid]
cell proliferation and viability of HEK293 cells (HEK293 cells; 150 μM or below): not
cell proliferation and viability of HEK293 cells (HEK293 cells; 300 or 450 μM): impaired
Bcl2 protein levels (immunoblot) [1]: reduced
Bcl2 protein levels (immunoblot) [2]: reduced
cell number by phase contrast images (SCC 22A cells): dramatically reduced cell number
